Assay results: the NIST ThermoML archive (doi:10.1016/j.jct.2014.11.007)
Numbers after ± are expanded uncertainties.

What was measured:
[1] = mn = molality of the nth substance listed, in mol/kg; conditions: 100 kPa, Liquid; for speed of sound: Frequency=3 MHz, Sing-around technique in a fixed-path interferometer; for mass density: Vibrating tube method
[2] = 100 kPa, Liquid, Vibrating tube method

SMILES	speed of sound ([1]; 293.15 K, m1 = 0.01)	speed of sound ([1]; 293.15 K, m1 = 0.03)	speed of sound ([1]; 293.15 K, m1 = 0.05)	mass density ([1]; 293.15 K, m1 = 0.03)	mass density ([1]; 293.15 K, m1 = 0.05)	speed of sound ([1]; 298.15 K, m1 = 0.01)	speed of sound ([1]; 298.15 K, m1 = 0.03)	speed of sound ([1]; 298.15 K, m1 = 0.05)	mass density ([1]; 298.15 K, m1 = 0.01)	mass density ([1]; 298.15 K, m1 = 0.03)	mass density ([1]; 298.15 K, m1 = 0.05)	speed of sound ([1]; 303.15 K, m1 = 0.01)	speed of sound ([1]; 303.15 K, m1 = 0.03)	speed of sound ([1]; 303.15 K, m1 = 0.05)	mass density ([1]; 303.15 K, m1 = 0.03)	mass density ([1]; 303.15 K, m1 = 0.05)	speed of sound ([1]; 308.15 K, m1 = 0.01)	speed of sound ([1]; 308.15 K, m1 = 0.03)	speed of sound ([1]; 308.15 K, m1 = 0.05)	mass density ([1]; 308.15 K, m1 = 0.03)	also measured
NCC(=O)O [2-aminoacetic acid] + O	1483.7 ± 1.5 m/s	1484.5 ± 1.5 m/s	1485.7 ± 1.5 m/s	999.313 ± 0.2 kg/m3	999.93 ± 0.2 kg/m3	1497.8 ± 1.5 m/s	1498.5 ± 1.5 m/s	1499.6 ± 1.5 m/s	997.478 ± 0.2 kg/m3	998.145 ± 0.2 kg/m3	998.761 ± 0.2 kg/m3	1510.2 ± 1.5 m/s	1510.9 ± 1.5 m/s	1511.9 ± 1.5 m/s	996.744 ± 0.2 kg/m3	997.353 ± 0.2 kg/m3	1520.8 ± 1.5 m/s	1521.5 ± 1.5 m/s	1522.5 ± 1.5 m/s	995.118 ± 0.2 kg/m3	speed of sound ([1]; 313.15 K, m1 = 0.01): 1529.8 ± 1.5 m/s; speed of sound ([1]; 313.15 K, m1 = 0.03): 1530.5 ± 1.5 m/s; speed of sound ([1]; 313.15 K, m1 = 0.05): 1531.5 ± 1.5 m/s; mass density ([1]; 313.15 K, m1 = 0.03): 993.306 ± 0.2 kg/m3; mass density ([1]; 313.15 K, m1 = 0.05): 993.898 ± 0.2 kg/m3
O=C(O)[C@@H]1CCCN1 [L-proline] + O	1483.8 ± 1.6 m/s	1485.8 ± 1.6 m/s	1487.4 ± 1.6 m/s	999.275 ± 0.26 kg/m3	999.919 ± 0.26 kg/m3	1497.8 ± 1.6 m/s	1499.8 ± 1.6 m/s	1501 ± 1.6 m/s	997.474 ± 0.26 kg/m3	998.109 ± 0.26 kg/m3	998.747 ± 0.26 kg/m3	1510.1 ± 1.6 m/s	1511.8 ± 1.6 m/s	1512.9 ± 1.6 m/s	996.709 ± 0.26 kg/m3	997.338 ± 0.26 kg/m3	1520.7 ± 1.6 m/s	1522.4 ± 1.6 m/s	1523.5 ± 1.6 m/s	995.083 ± 0.26 kg/m3	mass density ([1]; 293.15 K, m1 = 0.01): 998.631 ± 0.26 kg/m3; mass density ([1]; 303.15 K, m1 = 0.01): 996.082 ± 0.26 kg/m3; mass density ([1]; 308.15 K, m1 = 0.01): 994.462 ± 0.26 kg/m3; mass density ([1]; 308.15 K, m1 = 0.05): 995.708 ± 0.26 kg/m3; speed of sound ([1]; 313.15 K, m1 = 0.01): 1529.8 ± 1.6 m/s; speed of sound ([1]; 313.15 K, m1 = 0.03): 1531.4 ± 1.6 m/s; speed of sound ([1]; 313.15 K, m1 = 0.05): 1532.3 ± 1.6 m/s; mass density ([1]; 313.15 K, m1 = 0.01): 992.639 ± 0.26 kg/m3; mass density ([1]; 313.15 K, m1 = 0.03): 993.259 ± 0.26 kg/m3; mass density ([1]; 313.15 K, m1 = 0.05): 993.88 ± 0.26 kg/m3
O [water]	–	–	–	–	–	–	–	–	–	–	–	–	–	–	–	–	–	–	–	–	mass density ([2]; 293.15 K): 998.272 ± 0.2 kg/m3; mass density ([2]; 308.15 K): 994.108 ± 0.2 kg/m3; mass density ([2]; 313.15 K): 992.29 ± 0.2 kg/m3
